Where two headings read alike, the source gives them in different places.
Experiments:
IKKε = target: T1, IKKε (Homo sapiens, UniProt Q14164); assay: In-vitro IKKε kinase assay ([γ33]ATP filter-plate); type: biochemical
T1 construct: His-tag; made in house; host or cells: Sf9 insect cells
T1 sequence (Q14164 1-716): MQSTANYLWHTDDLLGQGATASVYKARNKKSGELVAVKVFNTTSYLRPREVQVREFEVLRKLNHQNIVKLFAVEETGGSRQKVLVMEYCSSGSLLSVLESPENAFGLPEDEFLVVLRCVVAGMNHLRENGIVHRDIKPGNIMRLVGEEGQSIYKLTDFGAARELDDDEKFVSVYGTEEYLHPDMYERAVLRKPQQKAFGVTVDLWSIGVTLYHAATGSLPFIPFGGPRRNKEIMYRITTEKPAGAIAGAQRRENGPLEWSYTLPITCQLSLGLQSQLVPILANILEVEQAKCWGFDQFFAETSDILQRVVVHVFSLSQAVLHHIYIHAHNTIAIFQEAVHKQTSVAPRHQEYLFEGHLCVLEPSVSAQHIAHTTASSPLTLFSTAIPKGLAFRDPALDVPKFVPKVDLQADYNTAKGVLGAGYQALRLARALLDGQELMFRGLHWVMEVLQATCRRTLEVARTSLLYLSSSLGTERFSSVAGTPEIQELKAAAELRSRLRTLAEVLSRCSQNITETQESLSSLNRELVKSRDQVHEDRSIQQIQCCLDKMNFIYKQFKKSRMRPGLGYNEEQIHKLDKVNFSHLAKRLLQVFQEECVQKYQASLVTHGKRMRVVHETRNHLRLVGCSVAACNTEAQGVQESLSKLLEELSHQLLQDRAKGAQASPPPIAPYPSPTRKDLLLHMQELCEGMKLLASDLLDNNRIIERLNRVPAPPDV
Method in brief: (§1)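 Phosphorylation of casein or myelin basic protein was counted by P-81 filter capture after 30-45 min reactions stopped with phosphoric acid, with counts normalized to DMSO after background subtraction. ATP was twice Km: 60 μM for TBK1 and 32 μM for IKKε, plus [γ33]ATP. Sf9-expressed His-tag enzymes were used at normal/sensitized levels of 0.1/0.02 μg/ml (TBK1) and 0.1/0.015 μg/ml (IKKε).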

TBK1 = target: T2, TBK1 (Homo sapiens, UniProt Q9UHD2); assay: In-vitro TBK1 kinase assay ([γ33]ATP filter-plate); type: biochemical
T2 construct: His-tag; made in house; host or cells: Sf9 insect cells
T2 sequence (Q9UHD2 1-729): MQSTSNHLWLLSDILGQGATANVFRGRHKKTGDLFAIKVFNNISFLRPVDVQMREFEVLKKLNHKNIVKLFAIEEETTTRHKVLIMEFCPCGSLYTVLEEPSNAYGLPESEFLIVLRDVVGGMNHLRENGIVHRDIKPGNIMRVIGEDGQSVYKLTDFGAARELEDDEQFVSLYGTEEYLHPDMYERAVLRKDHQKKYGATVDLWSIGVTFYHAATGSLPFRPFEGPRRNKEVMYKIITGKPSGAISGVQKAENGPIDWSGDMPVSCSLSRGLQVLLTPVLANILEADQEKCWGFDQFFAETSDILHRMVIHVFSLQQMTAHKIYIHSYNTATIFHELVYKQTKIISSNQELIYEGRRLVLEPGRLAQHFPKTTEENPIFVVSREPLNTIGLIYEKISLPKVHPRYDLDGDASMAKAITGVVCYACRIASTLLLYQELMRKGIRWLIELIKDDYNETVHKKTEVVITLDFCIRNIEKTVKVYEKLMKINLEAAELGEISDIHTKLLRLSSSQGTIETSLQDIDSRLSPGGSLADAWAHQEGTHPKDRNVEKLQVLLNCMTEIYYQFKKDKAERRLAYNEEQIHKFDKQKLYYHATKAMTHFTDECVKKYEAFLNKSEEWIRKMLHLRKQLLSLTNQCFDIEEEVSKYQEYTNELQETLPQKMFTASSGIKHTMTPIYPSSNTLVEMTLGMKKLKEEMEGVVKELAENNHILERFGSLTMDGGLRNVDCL
Method in brief: as §1

[1] = text bins, read-out: IC50 for inhibition of the kinase activity of IKKε
[2] = text bins, read-out: IC50 for inhibition of the kinase activity of TBK1

| SMILES | IC50 (IKKε; [1]) [nM] | IC50 (TBK1; [2]) [nM] | IC50 (IKKε; Table 3, read-out: IKKε IC50) [nM] | IC50 (TBK1; Table 3, read-out: TBK1 IC50) [nM] |
| --- | --- | --- | --- | --- |
| N#Cc1cc(-c2ccnc(Nc3ccc(N4CCOCC4)cc3)n2)ccc1OCc1cccnc1 [Example 168, 5-(2-{[4-(Morpholin-4-yl)phenyl]amino}pyrimidin-4-yl)-2-(pyridin-3-ylmethoxy) benzonitrile] | 5 to 50 | < 10 |  |  |
| COc1cc(-c2ccnc(Nc3ccc(CN4CCN(CCO)CC4)cc3)n2)cc(C#N)c1OC1CCOCC1 [compound 443] | 5 to 50 | 10 to 100 |  |  |
| COc1cc(Nc2nccc(-c3ccc(OC4CCOCC4)c(C#N)c3)n2)ccc1C(N)=O [compound 311, 4-({4-[3-cyano-4-(tetrahydro-2H-pyran-4-yloxy)phenyl]pyrimidin-2-yl}amino)-2-methoxybenzamide] | < 5 | < 10 |  |  |
| N#Cc1cc(-c2ccnc(Nc3ccc(N4CCOCC4)cc3)n2)ccc1OCC1CCN(C(=O)CO)C1 (stereo not drawn) [compound 461, 2-{[1-(hydroxyacetyl)pyrrolidin-3-yl]methoxy}-5-(2-{[4-(morpholin-4-yl)phenyl]amino}pyrimidin-4-yl)benzonitrile] | 5 to 50 | < 10 |  |  |
| CNS(=O)(=O)Cc1ccc(Nc2nccc(-c3ccc(OCC4CC4)c(C#N)c3)n2)cc1 [compound 644, 1-[4-({4-[3-Cyano-4-(cyclopropylmethoxy)phenyl]pyrimidin-2-yl}amino)phenyl]-N-methylmethane-sulfonamide] | < 5 | < 10 |  |  |
| CC(C)C(=O)Nc1ccc(-c2ccnc(Nc3cccc(CCN4CCOCC4)c3)n2)cc1C#N [compound 466, N-{2-cyano-4-[2-({3-[2-(morpholin-4-yl)ethyl]phenyl}amino)pyrimidin-4-yl]phenyl}-2-methylpropanamide] | 5 to 50 | < 10 |  |  |
| C[C@H](O)C(=O)N1CCC(Oc2ccc(-c3ccnc(Nc4ccc(C(=O)N(C)CCN(C)C)cc4)n3)cc2C#N)CC1 [compound 331, 4-({4-[3-cyano-4-({1-[(2S)-2-hydroxypropanoyl]piperidin-4-yl}oxy)phenyl]pyrimidin-2-yl}amino)-N-[2-(dimethylamino)ethyl]-N-methylbenzamide] | < 5 | < 10 |  |  |
| COc1ccc(-c2ccnc(Nc3cc(OC)c(OC)c(OC)c3)n2)cc1C#N [compound 341, 2-methoxy-5-{2-[(3,4,5-trimethoxyphenyl)amino]pyrimidin-4-yl}benzonitrile] | < 5 | < 10 |  |  |
| COc1cc(Nc2nccc(-c3ccc(OC)c(C#N)c3)n2)cc(C(=O)O)c1 [compound 305] | 5 to 50 | 10 to 100 |  |  |
| N#Cc1cc(-c2ccnc(Nc3ccc(N4CCOCC4)cc3)n2)ccc1OCCO [Example 239, 2-(2-Hydroxyethoxy)-5-(2-{[4-(morpholin-4-yl)phenyl]amino}pyrimidin-4-yl)benzonitrile] | < 5 | < 10 |  |  |
| N#Cc1cc(-c2ccnc(Nc3ccc(N4CCOCC4)cc3)n2)ccc1NC(=O)CN [compound 568, N-[2-Cyano-4-(2-{[4-(morpholin-4-yl)phenyl]amino}pyrimidin-4-yl)phenyl] glycinamide] | 5 to 50 | 10 to 100 |  |  |
| COc1ccc(-c2ccnc(Nc3ccc(OC)c(OC)c3)n2)cc1C#N [Example 48, 5-{2-[(3,4-Dimethoxyphenyl)amino]pyrimidin-4-yl}-2-methoxybenzonitrile] | 5 to 50 | 10 to 100 |  |  |
| CC(=O)N1CCN(C(=O)Nc2ccc(Nc3nccc(-c4ccc(OC5CCOCC5)c(C#N)c4)n3)cc2)CC1 [Example 19, 4-acetyl-N-[4-({4-[3-cyano-4-(tetrahydro-2H-pyran-4-yloxy)phenyl]pyrimidin-2-yl}amino)phenyl] piperazine-1-carboxamide] | 5 to 50 | < 10 |  |  |
| COc1ccc(Nc2nccc(-c3ccc(NC(C)=O)c(C#N)c3)n2)cc1OC [Example 136, N-(2-Cyano-4-{2-[(3,4-dimethoxyphenyl)amino]pyrimidin-4-yl}phenyl)acetamide] | 5 to 50 | 10 to 100 |  |  |
| COc1ccc(-c2ccnc(Nc3cccc(CN(C)CC(=O)N(C)C)c3)n2)cc1C#N [Example 67, N~2~-(3-{[4-(3-Cyano-4-methoxyphenyl)pyrimidin-2-yl]amino}benzyl)-N,N,N~2~- trimethylglycinamide] | 5 to 50 | 10 to 100 |  |  |
| CNc1ccc(-c2ccnc(Nc3ccc(N4CCOCC4)cc3)n2)cc1C#N [Example 218, 2-(Methylamino)-5-(2-{[4-(morpholin-4-yl)phenyl]amino}pyrimidin-4-yl)benzonitrile] | 5 to 50 | < 10 |  |  |
| COc1cc(-c2ccnc(Nc3ccc(N4CCOCC4)cc3)n2)cc(C#N)c1OC1CCOCC1 [compound 467, 3-methoxy-5-(2-{[4-(morpholin-4-yl)phenyl]amino}pyrimidin-4-yl)-2-(tetrahydro-2H-pyran-4-yloxy)benzonitrile] | < 5 | < 10 | 3.5 | 0.2 |
| COc1cc(NC(=O)NC2CCN(C(C)=O)CC2)cc(Nc2nccc(-c3ccc(OC)c(C#N)c3)n2)c1 [compound 344, 1-(1-Acetylpiperidin-4-yl)-3-(3-{[4-(3-cyano-4-methoxyphenyl)pyrimidin-2-yl]amino}-5-methoxyphenyl)urea] | 5 to 50 | 10 to 100 |  |  |
| N#Cc1cc(-c2ccnc(Nc3ccc(N4CCOCC4)cc3)n2)ccc1OCCCNC(=O)CO [Example 181, N-{3-[2-cyano-4-(2-{[4-(morpholin-4-yl)phenyl]amino}pyrimidin-4-yl)phenoxy]propyl}-2-hydroxyacetamide] | < 5 | < 10 |  |  |
| COc1cc(Nc2nccc(-c3ccc(OC)c(C#N)c3)n2)cc(OCCN2CCOCC2)c1 [Example 138, 2-Methoxy-5-[2-({3-methoxy-5-[2-(morpholin-4-yl)ethoxy]phenyl}amino)pyrimidin-4-yl]benzonitrile] | 5 to 50 | 10 to 100 |  |  |
| N#Cc1cc(-c2ccnc(Nc3ccc(NC(=O)Nc4ccncc4)cc3)n2)ccc1OC1CCOCC1 [Example 17, 1-[4-({4-[3-cyano-4-(tetrahydro-2H-pyran-4-yloxy)phenyl]pyrimidin-2-yl}amino)phenyl]-3-pyridin-4-ylurea] | 5 to 50 | 10 to 100 |  |  |
| CC(C)COc1ccc(-c2ccnc(Nc3ccc(CS(=O)(=O)NCCO)cc3)n2)cc1C#N [compound 645, 1-[4-({4-[3-Cyano-4-(2-methylpropoxy)phenyl]pyrimidin-2-yl}amino)phenyl]-N-(2-hydroxyethyl) methanesulfonamide] | < 5 | < 10 |  |  |
| CN(C)CC(=O)Nc1ccc(Nc2nccc(-c3cccc(C#N)c3)n2)cc1 [Example 183] | 50 to 500 | 10 to 100 |  |  |
| CC(C)C(=O)Nc1ccc(-c2ccnc(Nc3ccc(F)c(OCCCN4CCOCC4)c3)n2)cc1C#N [compound 411, N-{2-Cyano-4-[2-({4-fluoro-3-[3-(morpholin-4-yl)propoxy]phenyl}amino)pyrimidin-4-yl]phenyl}-2-methylpropanamide] | 5 to 50 | 10 to 100 |  |  |
| COc1cc(N)cc(Nc2nccc(-c3ccc(OC)c(C#N)c3)n2)c1 [compound 358, 5-{2-[(3-Amino-5-methoxyphenyl)amino]pyrimidin-4-yl}-2-methoxybenzonitrile] | 5 to 50 | 10 to 100 |  |  |
| CN(C)CCOc1ccc(Nc2nccc(-c3cccc(C#N)c3)n2)cc1 [Example 291, 3-[2-({4-[2-(Dimethylamino)ethoxy]phenyl}amino)pyrimidin-4-yl]benzonitrile] | 50 to 500 | 10 to 100 |  |  |
